US20260183320A1, “METHOD FOR TREATING CANCER BY COMBINING ALKYLATING AGENT PRODRUG AND CELL CYCLE INHIBITOR” (ASCENTAWITS PHARMACEUTICALS, LTD., priority 2022, published 2026)
Entries after “also recorded” stand apart in the source; their conditions may differ. Read-outs that look alike come from different tables or passages of the source.

Legend:
[1] = test system: p53-deficient (HT29) cell line; experiment: CTG cell proliferation assay, HT29 cell line; type: cell-based; conditions: for IC50: read-out: IC50
Protocol: (§1) Each CTG cell proliferation assay included the steps as follows: • 1) An H460 or HT29 cell suspension was added to a 96-well plate at 100 μL per well so that each well contained 2000 or 10000 cells. • 2) The cells were incubated overnight at 37° C. in an incubator with 5% CO2. • 3) Treatment with Compounds
(§2) Combination therapy: 1 μL of adavosertib (at four concentrations), AZD7762 (at four concentrations), palbociclib (at four concentrations) or ceralasertib (at three concentrations) was added to each well and shaken gently until homogeneous mixing.
(§3) 7) Chemiluminescence was read for 1000 ms on a multimode microplate reader. • 8) IC50 (half-maximal inhibitory concentration) values of the compounds were calculated using the GraphPad Prism 5 software. 1.

[2] = test system: wild-type p53-expressing (H460) cell line; experiment: CTG cell proliferation assay, H460 cell line; type: cell-based; conditions: for IC50: Homo sapiens, read-out: IC50
Protocol: as §1, §2, §3

[3] = HT29 (p53-deficient), various concentrations, also low
[4] = H460 (wild-type p53), both drugs at low concentrations

C[C@H](OP(=O)(N1CC1)N1CC1)c1ccc([N+](=O)[O-])c(Oc2cccc(C(=O)N(C)C)c2)c1 [AST-3424, (S)-1-(3-(3-N,N-dimethylaminocarbonyl)phenoxyl-4-nitrophenyl)-1-ethyl-N,N′-bis(ethylene)phosphoramidate]
additive cytotoxic effect in combination therapy with ceralasertib ([1]; HT29 (p53-deficient), various concentrations): very significant additive effects; also recorded: significant additive cytotoxic effects
additive cytotoxic effect in combination therapy with AZD7762 [1, 3]: significant additive cytotoxic effects
additive cytotoxic effect in combination therapy with adavosertib [1, 3]: significant additive cytotoxic effects
additive cytotoxic effect in combination therapy with palbociclib [1, 3]: significant additive cytotoxic effects
Ratio single/combo ([1]; HT29, 0.44 μM ceralasertib 2 h-pretreatment + AST-3424-72 h-cotreatment): 37.56
Ratio single/combo ([1]; HT29, 0.44 μM ceralasertib + AST-3424 72 h, simultaneously): 51.53
Ratio single/combo ([1]; HT29, AST-3424-2 h-pretreatment + 0.44 μM ceralasertib-72 h-cotreatment): 52.44
Ratio single/combo ([1]; HT29, IC50 monotherapy / IC50 with 50 nM palbociclib): 1.17
Ratio single/combo ([1]; HT29, IC50 monotherapy / IC50 with 100 nM AZD7762): 65.70
Ratio single/combo ([1]; HT29, IC50 monotherapy / IC50 with 100 nM adavosertib): 40.17
Ratio single/combo ([1]; HT29, IC50 monotherapy / IC50 with 130 nM AZD7762): 70.63
Ratio single/combo ([1]; HT29, IC50 monotherapy / IC50 with 130 nM adavosertib): 55.39
Ratio single/combo ([1]; HT29, IC50 monotherapy / IC50 with 160 nM AZD7762): 71.82
Ratio single/combo ([1]; HT29, IC50 monotherapy / IC50 with 160 nM adavosertib): 70.63
Ratio single/combo ([1]; HT29, IC50 monotherapy / IC50 with 1000 nM palbociclib): 1.92
Ratio single/combo ([1]; HT29, IC50 monotherapy / IC50 with 5000 nM palbociclib): 2.34
influence of the order of adding drugs on additive cytotoxic effect with ceralasertib ([1]; HT29, different orders of adding AST-3424 and 0.44 μM ceralasertib): did not show any differences
IC50 ([1]; HT29, monotherapy, 72 h): 73.4 nM
IC50 ([1]; Homo sapiens, HT-29, 72 h, HT29, 0.44 μM ceralasertib + AST-3424 72 h, simultaneously): 1.72 nM
IC50 ([1]; Homo sapiens, HT-29, 72 h, HT29, monotherapy, 72 h): 84.8 nM
IC50 ([1]; Homo sapiens, HT-29, HT29, 0.44 μM ceralasertib 2 h-pretreatment + AST-3424-72 h-cotreatment): 2.36 nM
IC50 ([1]; Homo sapiens, HT-29, HT29, AST-3424-2 h-pretreatment + 0.44 μM ceralasertib-72 h-cotreatment): 1.69 nM
IC50 ([1]; Homo sapiens, HT-29, HT29, monotherapy, first assay): 129 nM
IC50 ([1]; Homo sapiens, HT-29, HT29, monotherapy, order-of-addition assay): 88.6 nM
IC50 ([1]; Homo sapiens, HT-29, HT29, monotherapy, second assay): 99 nM
IC50 ([1]; Homo sapiens, HT-29, HT29, with 0.04 μM ceralasertib, first assay): 3.26 nM
IC50 ([1]; Homo sapiens, HT-29, HT29, with 0.04 μM ceralasertib, second assay): 1.62 nM
IC50 ([1]; Homo sapiens, HT-29, HT29, with 50 nM palbociclib (2 h pretreatment), 72 h): 62.5 nM
IC50 ([1]; Homo sapiens, HT-29, HT29, with 100 nM AZD7762 (2 h pretreatment), 72 h): 1.29 nM
IC50 ([1]; Homo sapiens, HT-29, HT29, with 100 nM adavosertib (2 h pretreatment), 72 h): 2.11 nM
IC50 ([1]; Homo sapiens, HT-29, HT29, with 130 nM AZD7762 (2 h pretreatment), 72 h): 1.2 nM
IC50 ([1]; Homo sapiens, HT-29, HT29, with 130 nM adavosertib (2 h pretreatment), 72 h): 1.52 nM
IC50 ([1]; Homo sapiens, HT-29, HT29, with 160 nM AZD7762 (2 h pretreatment), 72 h): 1.18 nM
IC50 ([1]; Homo sapiens, HT-29, HT29, with 160 nM adavosertib (2 h pretreatment), 72 h): 1.2 nM
IC50 ([1]; Homo sapiens, HT-29, HT29, with 1000 nM palbociclib (2 h pretreatment), 72 h): 38.1 nM
IC50 ([1]; Homo sapiens, HT-29, HT29, with 1.3 μM ceralasertib, first assay): 1.42 nM
IC50 ([1]; Homo sapiens, HT-29, HT29, with 1.3 μM ceralasertib, second assay): 1.21 nM
IC50 ([1]; Homo sapiens, HT-29, HT29, with 2 μM ceralasertib, first assay): 2.41 nM
IC50 ([1]; Homo sapiens, HT-29, HT29, with 2 μM ceralasertib, second assay): 1.23 nM
IC50 ([1]; Homo sapiens, HT-29, HT29, with 5000 nM palbociclib (2 h pretreatment), 72 h): 31.4 nM
additive cytotoxic effect in combination therapy with ceralasertib ([2]; H460 (wild-type p53)): significant additive cytotoxic effect
additive cytotoxic effect in combination therapy with palbociclib ([2]; H460 (wild-type p53), all concentrations): did not exhibit any significant additive cytotoxic effects
additive cytotoxic effect in combination therapy with AZD7762 [2, 4]: not significant
additive cytotoxic effect in combination therapy with adavosertib [2, 4]: not significant
additive cytotoxic effect in combination therapy with ceralasertib [2, 4]: not significant
additive cytotoxic effect in combination therapy with AZD7762 ([2]; H460 (wild-type p53), medium and high concentrations): certain additive cytotoxic effects
additive cytotoxic effect in combination therapy with ceralasertib ([2]; H460 (wild-type p53), medium or high concentration): certain additive cytotoxic effects
additive cytotoxic effect in combination therapy with adavosertib ([2]; H460 (wild-type p53), medium or high concentrations): certain additive cytotoxic effects
Ratio combo/single ([2]; H460, 0.15 μM ceralasertib, first assay): 6.67
Ratio combo/single ([2]; H460, 0.15 μM ceralasertib, second assay): 4.00
Ratio combo/single ([2]; H460, 0.44 μM ceralasertib, first assay): 20.00
Ratio combo/single ([2]; H460, 0.44 μM ceralasertib, second assay): 24.00
Ratio combo/single ([2]; H460, 1.3 μM ceralasertib, first assay): 13.33
Ratio combo/single ([2]; H460, 1.3 μM ceralasertib, second assay): 12.00
Ratio single/combo ([2]; H460, IC50 monotherapy / IC50 with 0.5 nM AZD7762): 1.03
Ratio single/combo ([2]; H460, IC50 monotherapy / IC50 with 0.5 nM adavosertib): 1.10
Ratio single/combo ([2]; H460, IC50 monotherapy / IC50 with 6.4 nM AZD7762): 0.73
Ratio single/combo ([2]; H460, IC50 monotherapy / IC50 with 6.4 nM adavosertib): 1.26
Ratio single/combo ([2]; H460, IC50 monotherapy / IC50 with 160 nM AZD7762): 2.13
Ratio single/combo ([2]; H460, IC50 monotherapy / IC50 with 160 nM adavosertib): 1.79
Ratio single/combo ([2]; H460, IC50 monotherapy / IC50 with 800 nM adavosertib): 2.27
Ratio combo/single ([2]; H460, IC50 with 0.05 nM palbociclib / IC50 monotherapy): 1.12
Ratio combo/single ([2]; H460, IC50 with 0.64 nM palbociclib / IC50 monotherapy): 1.12
Ratio combo/single ([2]; H460, IC50 with 400 nM palbociclib / IC50 monotherapy): 1.24
IC50 ([2]; NCI-H460, 72 h, H460, monotherapy, 72 h): 0.34 nM
IC50 ([2]; NCI-H460, H460, monotherapy, first assay): 0.4 nM
IC50 ([2]; NCI-H460, H460, monotherapy, second assay): 0.24 nM
IC50 ([2]; NCI-H460, H460, with 0.05 nM palbociclib (2 h pretreatment), 72 h): 0.38 nM
IC50 ([2]; NCI-H460, H460, with 0.5 nM AZD7762 (2 h pretreatment), 72 h): 0.33 nM
IC50 ([2]; NCI-H460, H460, with 0.5 nM adavosertib (2 h pretreatment), 72 h): 0.31 nM
IC50 ([2]; NCI-H460, H460, with 0.64 nM palbociclib (2 h pretreatment), 72 h): 0.38 nM
IC50 ([2]; NCI-H460, H460, with 6.4 nM AZD7762 (2 h pretreatment), 72 h): 0.47 nM
IC50 ([2]; NCI-H460, H460, with 6.4 nM adavosertib (2 h pretreatment), 72 h): 0.27 nM
IC50 ([2]; NCI-H460, H460, with 0.15 μM ceralasertib, first assay): 0.06 nM
IC50 ([2]; NCI-H460, H460, with 0.15 μM ceralasertib, second assay): 0.06 nM
IC50 ([2]; NCI-H460, H460, with 160 nM AZD7762 (2 h pretreatment), 72 h): 0.16 nM
IC50 ([2]; NCI-H460, H460, with 160 nM adavosertib (2 h pretreatment), 72 h): 0.19 nM
IC50 ([2]; NCI-H460, H460, with 400 nM palbociclib (2 h pretreatment), 72 h): 0.42 nM
IC50 ([2]; NCI-H460, H460, with 0.44 μM ceralasertib, first assay): 0.02 nM
IC50 ([2]; NCI-H460, H460, with 0.44 μM ceralasertib, second assay): 0.01 nM
IC50 ([2]; NCI-H460, H460, with 800 nM adavosertib (2 h pretreatment), 72 h): 0.15 nM
IC50 ([2]; NCI-H460, H460, with 1.3 μM ceralasertib, first assay): 0.03 nM
IC50 ([2]; NCI-H460, H460, with 1.3 μM ceralasertib, second assay): 0.02 nM
